Like-named read-outs stand apart in the source and are kept apart here.
Experiments:
[1] = biological target: T1, hLAT1/4F2hc (Homo sapiens, UniProt Q01650); assay: cis-inhibition of [14C]-L-leucine uptake in HEK-hLAT1 cells; type: cell-based; conditions: for inhibition at 50 µM: read-out: [14C]-L-Leucine uptake inhibition % (50μM); for IC50: read-out: IC50 of [14C]-L-leucine uptake
T1 construct: Invitrogen (host cells)
Protocol: (§1) In the following experiments, the MCF-7, HEK-hLAT1, and HEK-MOCK cells were cultured, seeded, and preincubated as described above. The HBSS was removed, and the ability of the compounds to inhibit the uptake of a known LAT1 substrate, [^14C]-L-leucine (PerkinElmer, Waltham, MA, USA), was studied by incubating the cells at RT for 10 min in uptake buffer pH 7.4 (250 μL) containing 0.76 μM (0.1 mCi/mL) of [^14C]-L-leucine and 0.025–1800 μM of the studied compound (or HBSS as blank). After incubation, the reaction was stopped with ice-cold HBSS, and the cells were washed two times with ice-cold HBSS. The cells were then lysed with 250 μL of 0.1 M sodium hydroxide, the lysate was mixed with 1.0 mL of Emulsifier safe cocktail (PerkinElmer, Waltham, MA, USA), and the radioactivity was measured with a liquid scintillation counter (MicroBeta^2 counter, PerkinElmer, Waltham, MA, USA). The inhibition of [^14C]-L-leucine in the presence of the studied compounds as compared to the control (HBSS) was calculated as percentages (%).
Using the stably hLAT1/4F2hc expressing cell line, the compounds’ inhibitory efficiencies and uptake kinetics were determined via the cis-inhibition assay and uptake studies, respectively. (Table 1) Cis-inhibition is based on the competition between the ligand and LAT1 substrate [^14C]-L-leucine that results in inhibition of substrate uptake. The competitive uptake with L-leucine is reported as the IC50 value of L-leucine uptake and extent as inhibition percentage (%) at a given concentration.

[2] = biological target: T2, LAT1 in MCF-7 human breast cancer cells (Homo sapiens, UniProt Q01650); assay: cis-inhibition of [14C]-L-leucine uptake in MCF-7 cells; type: cell-based; conditions: for inhibition at 50 µM: MCF7, MCF-7 cells, 50 μM compound; for IC50: MCF-7 cells
T2 construct: wild-type MCF-7 human breast cancer cell line; endogenous in cells; host or cells: MCF-7 human breast cancer cells (wild type)
T2 sequence (Q01650 whole entry): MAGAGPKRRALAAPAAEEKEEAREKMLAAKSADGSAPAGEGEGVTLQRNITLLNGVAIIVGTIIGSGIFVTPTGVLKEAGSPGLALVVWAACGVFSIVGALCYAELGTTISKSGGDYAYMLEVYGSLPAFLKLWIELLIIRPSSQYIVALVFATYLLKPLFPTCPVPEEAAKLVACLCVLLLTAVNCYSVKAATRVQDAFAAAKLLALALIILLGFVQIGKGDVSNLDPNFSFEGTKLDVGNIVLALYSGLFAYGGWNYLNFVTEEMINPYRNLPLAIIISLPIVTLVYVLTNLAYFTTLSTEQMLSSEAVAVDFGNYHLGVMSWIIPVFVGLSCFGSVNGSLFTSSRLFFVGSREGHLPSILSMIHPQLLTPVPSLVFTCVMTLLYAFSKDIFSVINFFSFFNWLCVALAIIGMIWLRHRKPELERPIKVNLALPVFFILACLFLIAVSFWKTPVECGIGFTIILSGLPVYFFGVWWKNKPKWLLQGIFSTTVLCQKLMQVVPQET
T2 sequence (P08195 102-630 partner): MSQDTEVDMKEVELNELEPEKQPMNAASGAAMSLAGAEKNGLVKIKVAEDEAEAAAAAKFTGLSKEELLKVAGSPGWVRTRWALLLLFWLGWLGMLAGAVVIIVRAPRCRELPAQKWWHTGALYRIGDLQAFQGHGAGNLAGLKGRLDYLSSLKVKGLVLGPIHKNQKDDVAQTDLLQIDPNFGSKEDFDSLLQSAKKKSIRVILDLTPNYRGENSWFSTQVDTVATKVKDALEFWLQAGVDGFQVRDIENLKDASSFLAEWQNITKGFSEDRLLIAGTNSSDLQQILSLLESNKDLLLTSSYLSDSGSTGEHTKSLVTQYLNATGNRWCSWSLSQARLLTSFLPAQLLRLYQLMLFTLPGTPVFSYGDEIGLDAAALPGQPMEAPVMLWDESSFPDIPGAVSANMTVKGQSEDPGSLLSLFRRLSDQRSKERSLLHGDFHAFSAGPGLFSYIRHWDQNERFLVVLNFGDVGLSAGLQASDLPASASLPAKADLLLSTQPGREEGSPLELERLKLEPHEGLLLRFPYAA
Protocol: Cells were cultured in DMEM (Gibco, ThermoFisher Scientific, Waltham, MA, USA) supplemented with L-glutamine (2 mM; ThermoFisher Scientific, Waltham, MA, USA), heat-inactivated fetal bovine serum (10%; Gibco, ThermoFisher Scientific, Waltham, MA, USA), penicillin (50 U/mL)-streptomycin (50 μg/mL) solution (ThermoFisher Scientific, Waltham, MA, USA), and hygromycin B solution (100 μg/mL) for transfected cells. HEK-hLAT1 and HEK-MOCK cells (passages 7–20) were seeded at a density of 5 × 10^5 cells/wells onto 24-well plates. The cells were used in the characterization, competition, and uptake studies 2 days after seeding. MCF-7 cells were seeded at a density of 1 × 10^5 and were used in the competition studies 1 day after seeding. The culture medium was removed, and the cells were washed with prewarmed Hanks’ balanced salt solution (HBSS; 125 mM NaCl, 4.8 mM KCl, 1.2 mM MgSO4, 1.2 mM KH2PO4, 1.3 mM CaCl2, 5.6 mM D-glucose, and 25 mM HEPES, pH 7.4). The cells were then incubated with HBSS at 37 °C for 10 min before the experiments.
as §1

[3] = biological target: T1, hLAT1/4F2hc; assay: Concentration-dependent cellular uptake into HEK-hLAT1 cells (LC-MS/MS, Michaelis-Menten); type: cell-based; conditions: difference in uptake HEK-hLAT1 vs HEK-MOCK, with docking poses; 2-100 μM curves
[4] = tested on: HEK-MOCK cells; assay: Concentration-dependent cellular uptake into HEK-MOCK cells; type: cell-based, human; conditions: for Vmax: 10 min
Protocol: (§2) The concentrations for the compounds were in the range of 2–400 μM. Otherwise, the experiment was carried out as described above and analyzed by liquid chromatography coupled with an electrospray ionization (ESI) triple quadrupole mass spectrometer (LC–MS–MS). […]
(§3) The concentration-dependent uptake studies were performed by adding 2–400 μM of the tested compound in 250 μL of prewarmed HBSS buffer on the cell layer. […] After incubation, the cells were washed and lysed as described above. The lysate was collected from wells into an Eppendorf tube and centrifuged at 4 °C, the supernatant was collected, and the intracellular concentrations of studied compounds were analyzed by liquid chromatography coupled with an ESI triple quadrupole mass spectrometer (LC–MS–MS). The results were calculated from the standard curve that was prepared by spiking known amounts of each compound to the cell lysate and normalized to protein concentration. The protein concentrations on each plate were determined as a mean of three samples by Bio-Rad Protein Assay, based on the Bradford dye-binding method, using BSA as a standard protein and measuring the absorbance (595 nm) by a multiplate reader (EnVision, PerkinElmer, Inc., Waltham, MA, USA). All statistical analyses (Michaelis–Menten kinetic parameters) were performed using GraphPad Prism v. 5.03 software (GraphPad Software, San Diego, CA., USA). […]
(§4) After protein precipitation, the samples were centrifuged for 10 min with 10,000 g at 4 °C. The supernatant was then collected and transferred to vials for LC–MS/MS analysis. For BCH and gabapentin, cells were also lysed with 0.1 M NaOH, an aliquot was taken from the lysates, and perchloric acid (PCA) was added to precipitate the proteins. The samples were then centrifuged, and the supernatant was diluted 1:10 with H20 with 0.1% formic acid including the IS and transferred to vials for analysis.
(§5) The samples were analyzed with LC–MS/MS coupled with an Agilent 1200 series Rapid Resolution LC System (Agilent Technologies, Waldbronn, Germany) and an Agilent 6410 Triple Quadrupole with electrospray ionization (ESI) (Agilent Technologies, Palo Alto, CA, USA). […] The aqueous mobile phase was 0.1% formic acid in water (A), while the organic mobile phase was 0.1% formic acid in acetonitrile (B). […] For compound 4: 0–4 min 10% → 90% B, 4–6 min 90% B, 6–6.1 min 90% → 10%, 6.1–9 min 10%. For compound 5: 0–1 min 20% → 95% B, 1–4 min 95%, 4–4.1 min 95% → 20%, 4.1–7 min 20%. For compounds 6 and 9: 0–2 min 10% → 95%, 2–6 min 95%, 6–6.1 min 95% → 10%, 6.1–9 min 10%. For compound 8: 0–1 min 20% → 80%, 1–5.2 min 80%, 5.2–5.3 min 80% → 20%, 5.3–9 min 20%.

[5] = tested on: HEK-MOCK cells; assay: cis-inhibition of [14C]-L-leucine uptake in HEK-MOCK cells; type: cell-based, human; conditions: Homo sapiens; for inhibition at 50 µM: 10 min, read-out: [14C]-L-Leucine uptake inhibition % (50μM); for IC50: read-out: IC50 of [14C]-L-leucine uptake
Protocol: as §1
Using the stably hLAT1/4F2hc expressing cell line, the compounds’ inhibitory efficiencies and uptake kinetics were determined via the cis-inhibition assay and uptake studies, respectively. (Table 1) Cis-inhibition is based on the competition between the ligand and LAT1 substrate [^14C]-L-leucine that results in inhibition of substrate uptake. The competitive uptake with L-leucine is reported as the IC50 value of L-leucine uptake and extent as inhibition percentage (%) at a given concentration. Overall, the inhibition trends of the tested compounds were similar between HEK-hLAT1 and MCF-7 cells. In the next step, more straightforward results were obtained by undertaking direct cellular uptake studies with both HEK-hLAT1 and HEK-MOCK cells. This experiment enabled us to determine not only the uptake kinetics (Vmax and Km) of the ligands but also their preference for LAT1-expressing cells over the comparator HEK-MOCK cells.

[6] = biological target: T1, hLAT1/4F2hc; assay: Concentration-dependent cellular uptake into HEK-hLAT1 cells (LC-MS/MS, Michaelis-Menten); type: cell-based; conditions: HEK-hLAT1 cells; for Vmax: 2-400 μM, 10 min
Protocol: as §2, §3, §4, §5

[7] = tested on: MCF-7 cells; conditions: MCF-7 cells, previous studies; cited from earlier work
[8] = HEK-hLAT1 cells, 50 μM compound, compounds 1-12
[9] = HEK-hLAT1 cells, compounds 1-12
[10] = known LAT1 substrates, 2-400 μM, n = 3
[11] = HEK-hLAT1 cells, known substrates

T1 sequence (Q01650 whole entry): as the sequence (Q01650 whole entry) above
T1 sequence (P08195 102-630 partner): as the sequence (P08195 102-630 partner) above

Row | inhibition at 50 µM [1, 8] [%] | IC50 [1, 9] [µM] | inhibition at 50 µM [2] [%] | IC50 [2] [µM] | interaction class with LAT1 (interaction and transportability) [3] | Compound | Vmax [4, 10] | Km ([4]; known LAT1 substrates, n = 3) [µM] | IC50 [1, 11] [µM] | Km ([4]; compounds 1-12) [µM] | Vmax ([4]; compounds 1-12, 2-400 μM) | further results
1 | 20 ± 2.5 | 57 | 69 ± 4.3 | 20 ± 1.3 | medium interactions | CC(C)Cc1ccc(C(C)C(=O)Nc2cccc(C[C@H](N)C(=O)O)c2)cc1 (some centres unmarked) [Compound 7] | – | – | – | – | – | –
2 | – | – | – | – | – | NC1(C(=O)O)CC2CCC1C2 (centres unmarked) [BCH, reference compound] | 2.6±0.6 nmol/min/mg of protein | 155 ± 50 | 28 | – | – | inhibition at 50 µM ([1]; HEK-hLAT1 cells, 50 μM compound, 0.76 μM [14C]-L-leucine, 10 min, known substrates): 51.8 ± 2.1%; inhibition at 50 µM ([5]; HEK-MOCK cells, 50 μM compound, 0.76 μM [14C]-L-leucine, known substrates): 5.8 ± 1%; IC50 ([5]; HEK-MOCK cells, known substrates): 203 µM
3 | 8.1 ± 6.9 | > 100 | 66 ± 3.9 | 3.3 ± 1.3 | highest interactions | N[C@@H](Cc1cccc(NC(=O)c2ccccc2O)c1)C(=O)O [Compound 1] | – | – | – | 10 ± 2.7 | 94±5.4 pmol/min/mg of protein | Vmax ([6]; compounds 1-12): 3714±371 pmol/min/mg of protein; Km ([6]; compounds 1-12, read-out: Km): 105 ± 17 µM
4 | 4.27 ± 3.94 | > 100 | – | 3.3 ± 1.3 | highest interactions | N[C@@H](Cc1cccc(C(=O)NCCc2ccc(O)c(O)c2)c1)C(=O)O [Compound 3] | – | – | – | – | – | Vmax [7]: < 3 pmol/min/mg
5 | 29 ± 2.8 | > 100 | 48 ± 12 | – | medium interactions | CNC(=O)COc1ccc(-c2c(C#N)c(NC(=O)c3cccc(C[C@H](N)C(=O)O)c3)n3c(nc4ccccc43)c2C#N)cc1 [Compound 6] | – | – | – | 201 ± 344 | 74±92 pmol/min/mg of protein | –
6 | – | – | – | – | – | N[C@@H](Cc1c[nH]c2ccccc12)C(=O)O [Tryptophan, L-tryptophan, reference compound] | 0.3±0.2 nmol/min/mg of protein | 482 ± 496 | 24 | – | – | Vmax ([6]; known LAT1 substrates, n = 3): 12±19 nmol/min/mg of protein; inhibition at 50 µM [1]: 50.2 ± 1.7%; inhibition at 50 µM [5]: 19.6 ± 6.2%; IC50 [5]: 163 µM

Source: paper PMC9811466, “Structural Features Affecting the Interactions and Transportability of LAT1-Targeted Phenylalanine Drug Conjugates” (Molecular Pharmaceutics, 2022)
